Biological target: T1, ENaC (Homo sapiens, UniProt P37088+P51168+P51170)
T1 construct: endogenous in cells; host or cells: primary human bronchial epithelial (HBE) cells at air-liquid interface
T1 sequence (P37088 1-669): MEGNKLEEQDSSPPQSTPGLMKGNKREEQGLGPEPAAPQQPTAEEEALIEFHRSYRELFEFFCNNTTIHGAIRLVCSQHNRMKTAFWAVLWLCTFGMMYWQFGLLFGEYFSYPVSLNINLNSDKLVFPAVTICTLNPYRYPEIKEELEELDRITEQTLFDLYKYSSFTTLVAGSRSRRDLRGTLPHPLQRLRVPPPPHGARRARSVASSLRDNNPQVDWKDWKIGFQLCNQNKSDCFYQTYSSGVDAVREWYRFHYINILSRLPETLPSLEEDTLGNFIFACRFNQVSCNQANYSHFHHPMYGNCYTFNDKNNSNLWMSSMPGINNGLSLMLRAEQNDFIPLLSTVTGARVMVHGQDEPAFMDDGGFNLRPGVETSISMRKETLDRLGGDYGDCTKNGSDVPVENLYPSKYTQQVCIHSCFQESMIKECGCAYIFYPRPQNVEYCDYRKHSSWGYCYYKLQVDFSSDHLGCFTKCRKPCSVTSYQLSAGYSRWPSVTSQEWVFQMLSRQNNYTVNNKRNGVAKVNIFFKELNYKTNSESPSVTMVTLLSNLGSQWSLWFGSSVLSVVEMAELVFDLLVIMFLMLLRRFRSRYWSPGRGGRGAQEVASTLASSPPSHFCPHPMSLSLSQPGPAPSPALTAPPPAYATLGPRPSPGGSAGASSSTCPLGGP
T1 sequence (P51168 1-640): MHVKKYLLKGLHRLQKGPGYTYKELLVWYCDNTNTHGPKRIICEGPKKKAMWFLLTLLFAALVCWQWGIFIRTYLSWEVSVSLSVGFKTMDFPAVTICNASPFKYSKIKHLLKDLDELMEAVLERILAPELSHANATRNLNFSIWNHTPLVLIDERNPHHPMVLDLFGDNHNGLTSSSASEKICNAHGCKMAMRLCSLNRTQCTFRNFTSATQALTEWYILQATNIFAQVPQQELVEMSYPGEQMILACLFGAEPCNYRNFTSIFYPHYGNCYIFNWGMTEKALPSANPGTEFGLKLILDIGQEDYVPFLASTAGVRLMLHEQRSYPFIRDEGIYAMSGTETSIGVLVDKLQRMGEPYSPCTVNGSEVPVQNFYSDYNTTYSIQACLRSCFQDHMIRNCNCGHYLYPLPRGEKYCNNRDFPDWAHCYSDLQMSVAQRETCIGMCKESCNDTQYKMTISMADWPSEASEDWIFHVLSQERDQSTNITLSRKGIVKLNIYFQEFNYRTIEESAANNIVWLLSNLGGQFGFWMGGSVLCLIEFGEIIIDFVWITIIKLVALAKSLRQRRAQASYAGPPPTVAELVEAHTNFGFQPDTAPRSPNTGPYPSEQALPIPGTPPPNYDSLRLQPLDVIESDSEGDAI
T1 sequence (P51170 1-649): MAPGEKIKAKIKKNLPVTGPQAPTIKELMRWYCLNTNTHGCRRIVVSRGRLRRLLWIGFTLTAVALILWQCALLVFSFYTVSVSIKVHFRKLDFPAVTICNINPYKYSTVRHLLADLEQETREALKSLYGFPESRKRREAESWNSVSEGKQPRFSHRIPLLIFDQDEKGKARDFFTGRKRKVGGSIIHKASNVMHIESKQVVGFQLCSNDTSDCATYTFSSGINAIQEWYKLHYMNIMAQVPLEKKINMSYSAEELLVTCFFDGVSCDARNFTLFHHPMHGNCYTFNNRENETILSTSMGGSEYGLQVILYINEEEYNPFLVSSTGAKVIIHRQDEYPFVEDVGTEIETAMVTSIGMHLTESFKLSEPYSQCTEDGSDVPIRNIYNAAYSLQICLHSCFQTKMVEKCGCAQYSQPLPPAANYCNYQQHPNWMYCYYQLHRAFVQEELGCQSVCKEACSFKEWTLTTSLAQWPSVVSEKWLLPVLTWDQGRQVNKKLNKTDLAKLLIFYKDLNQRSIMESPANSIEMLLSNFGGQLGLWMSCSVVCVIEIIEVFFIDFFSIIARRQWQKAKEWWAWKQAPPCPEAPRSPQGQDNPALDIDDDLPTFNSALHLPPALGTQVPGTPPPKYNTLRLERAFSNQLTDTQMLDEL
Experiment: ENaC Na^+ conductance in HBE cells
Assay type: cell-based
Details: 10 μM, 5 min pretreatment; amiloride 10 μM
Protocol: FIG. 2A-E. Characterization of TMEM16A activators. FIG. 2A. Cytoplasmic calcium measured by Fluo-4 fluorescence. 100 μM ATP (gray line) or 10 μM of indicated TMEM16A activators were added at the arrow. FIG. 2B. Apical membrane current measured in TMEM16A-expressing FRT cells in the presence of a transepithelial chloride gradient and after basolateral membrane permeabilization. […] T16Ainh-A01 (10 μM) added where indicated. […] (right) Concentration-activation data summary (mean±S.E., n=4-6). FIG. 2C. Synergistic effect of Eact and Fact. (left and center) Representative current traces showing synergy. (right) Data summary of low doses of TMEM16A activation (mean±S.E., n=5, * P<0.05). FIG. 2D. Apical membrane current measured in FRT cells transfected with mouse TMEM16A or TMEM16B. FIG. 2E. Effect of Eact and Fact on CFTR and ENaC. (left) FRT cells expressing wild type CFTR and YFP indicator were pretreated for 5 min with 10 μM Eact and Fact. Forskolin (10 μM) added as indicated. […]
Snapwell inserts containing TMEM16A-expressing FRT, HBE, CF HBE or HTG cells were mounted in Ussing chambers (Physiologic Instruments, San Diego, Calif.). […] Apical membrane current (for FRT cells) and short-circuit current were measured using an EVC4000 Multi-Channel V/I Clamp (World Precision Instruments, Sarasota, Fla.) and recorded using PowerLab/8sp (AD Instruments, Castle Hill, Australia).

`O=C(Nc1ccc(Br)cc1)c1cccc(-n2cnnn2)c1` [Fact, N-(4-bromophenyl)-3-(1H-tetrazol-1-yl)benzamide] was tested, and the “effect on ENaC Na^+ conductance” value was “Neither Eact nor Fact affected”.

Source: US9790218B2, “Small molecule activators of calcium-activated chloride channels and methods of use” (The Regents of the University of California, priority 2011, dated 2017)
